# What was measured:
# [1] = Storage stability of analytes in rat plasma (method validation); details: for Auto-Sampler Stability at 2–8 °C (72 h), Bias / Auto-Sampler Stability at 2–8 °C (72 h), Measured Concentration: processed rat plasma; for Auto-Sampler Stability at 2–8 °C (72 h), Bias / Short-Term Stability at Room Temperature (4 h), Bias / Freeze and Thaw Stability at −80 °C/Room Temperature (3 Cycles), Bias / Long-Term Stability at −80 °C (70 days), Bias: n = 6; for Auto-Sampler Stability at 2–8 °C (72 h), Measured Concentration / Freeze and Thaw Stability at −80 °C/Room Temperature (3 Cycles), Measured Concentration / Long-Term Stability at −80 °C (70 days), Measured Concentration / Short-Term Stability at Room Temperature (4 h), Measured Concentration: n = 6, mean ± SD; for Short-Term Stability at Room Temperature (4 h), Bias / Freeze and Thaw Stability at −80 °C/Room Temperature (3 Cycles), Bias / Long-Term Stability at −80 °C (70 days), Bias / Freeze and Thaw Stability at −80 °C/Room Temperature (3 Cycles), Measured Concentration / Long-Term Stability at −80 °C (70 days), Measured Concentration / Short-Term Stability at Room Temperature (4 h), Measured Concentration: rat plasma; for Short-Term Stability at Room Temperature (4 h), Bias: bias from nominal
# Protocol: (§3) By investigating low- and high-concentration stability QCs in six replicates at different storage conditions, autosampler, short-term (bench-top), freeze and thaw, and long-term stability evaluations were conducted.
# [2] = Storage stability of analytes in mouse tumor homogenate (method validation)
# Protocol: (§4) Tumor-bearing mouse tumor/individual tissue samples were homogenized by adding PBS at a ratio of 1:5 (e.g., 1 g of tumor sample to 5 mL of PBS) to make a tumor/tissue homogenate. A quantity of 60 µL of homogenate was taken as a tumor/tissue sample and processed in the same manner as the mouse plasma sample, with the exception of 240 µL of IS working solution used for protein precipitation.
# as §3
# [3] = Storage stability of analytes in mouse plasma (method validation); details: for Freeze and thaw stability at -80 °C/ room temperature, Bias / Freeze and thaw stability at -80 °C/ room temperature, Measured concentration / Long term stability at -80 °C (30 days), Bias / Short term stability at room temperature (6 h), Bias / Long term stability at -80 °C (30 days), Measured concentration / Short term stability at room temperature (6 h), Measured concentration: mouse plasma; for Freeze and thaw stability at -80 °C/ room temperature, Bias / Freeze and thaw stability at -80 °C/ room temperature, Measured concentration: 1 cycle; for Freeze and thaw stability at -80 °C/ room temperature, Bias / Long term stability at -80 °C (30 days), Bias / Short term stability at room temperature (6 h), Bias / Auto-sampler stability at 2-8 °C, Bias: n = 6; for Freeze and thaw stability at -80 °C/ room temperature, Measured concentration / Long term stability at -80 °C (30 days), Measured concentration / Short term stability at room temperature (6 h), Measured concentration / Auto-sampler stability at 2-8 °C, Measured concentration: n = 6, mean ± SD; for Auto-sampler stability at 2-8 °C, Bias / Auto-sampler stability at 2-8 °C, Measured concentration: processed mouse plasma, 12 h
# Protocol: as §3
# [4] = Storage stability of analytes in mouse liver homogenate (method validation)
# Protocol: as §4, §3
# [5] = Single-dose pharmacokinetic study of legubicin, i.v.; details: free metabolite in plasma; for AUClast / Cmax: n = 3, mean ± SD; for Tmax: n = 3, median [min, max]
# Protocol: The pharmacokinetic parameters are outlined in Table 5. […] A power-function model was used to fit the relationship between exposure level (Cmax, AUClast, and AUCINF_obs) parameters and dose, and the power exponent (parameter β) and its 90% confidence interval were obtained (see Table S5).
# (§1) The mixture was vortexed for 3 min, and then centrifuged at 22,000× g at 4 °C for 10 min. A final analysis was conducted by injecting 5 µL supernatant into a UHPLC-MS/MS system. Mouse plasma samples were treated in the same way as the rat plasma samples, except for protein precipitation, with 200 µL of 5 pmol/mL IS working solution and injection of 2 µL of supernatant for analysis.
# (1) For the hydrolysis process, an aliquot of 25 µL of rat/mouse plasma was transferred into an Eppendorf tube, and then 50 µL of enzyme digestion buffer and 25 µL of legumain enzyme were placed into the tube. The mixture was vortexed for 1 min, and then incubated in a water bath for 24 h at 37 °C for enzymatic hydrolysis. (2) For the protein precipitation process, 1000 µL of IS working solution (5 pmol/mL and 50 pmol/mL for rat and mouse plasmas, respectively) was added to the enzymatic-hydrolysis solution. Then, the sample was vortexed for 3 min and centrifuged at 22,000× g for 10 min at 4 °C. Analyses were performed on the 3 µL aliquot of the solution used in the UHPLC-MS/MS system.
# Twenty-four rats, inclusive of both sexes, were randomly distributed into four groups. Groups 1, 2, and 3 were single-dose groups, among which the subjects received legubicin via tail intravenous injection (a dose of 1.5, 5, or 15 mg/kg; i.e., 1.36, 4.52, or 13.6 µmol/kg). The fourth group was utilized for a multi-dose study at 5 mg/kg (once-weekly for 4 consecutive weeks). Blood samples of approximately 150 µL were taken from the jugular vein at 0 h (pre-dosing) and at 0.167 h (10 min), 0.5 h, 1 h, 2 h, 4 h, 8 h, 24 h, 48 h, and 72 h post-dosing in the single-dose groups. Samples were also obtained on days 1 and 22 for the multiple-dose group in the same way as for the single-dose groups. However, on days 8 and 15, samples were taken only before and 10 min after administration. The K2EDTA quantities containing blood samples were centrifuged (4 °C, 4000 rpm, 10 min) to collect plasma samples, which were separated into EP tubes and kept at −80 °C until further assay.
# (§2) The analysis software (Version 1.5.2, AB Sciex, Vaughan, ON, Canada) was applied to data acquisition and quantification. Pharmacokinetic parameters were calculated with WinNonlin Phoenix (v6.4, Pharsight, Mountain View, CA, USA) with the noncompartmental method, and were presented as mean ± SD (%CV). The “Best fit” strategy in the WinNonlin Phoenix was used for the calculation of elimination half-life and the selection of the elimination phase. Graphs were plotted by GraphPad Software (GraphPad Prism 8.0.2; GraphPad Software, Inc., La Jolla, CA, USA).
# [6] = Tissue-distribution study after i.v. legubicin or doxorubicin; details: HT1080 tumor-bearing mice
# Protocol: as §1
# Each legubicin administration group corresponded to a sampling time-point (4, 16, 32, 48, 96, 168, and 240 h after administration). […] Blood samples and tumor, heart, and kidney tissues were collected at the sampling time points (4, 16, 32, 48, 96, 168, and 240 h after dosing). In addition, liver, spleen, lung, stomach, small intestine, gonads, brain, skeletal muscle, and skin were also collected at 4, 32, 96, and 240 h post-dose time points in the legubicin administration group. All whole-blood samples were processed according to the same processing steps, described above, for rat whole-blood samples.
# as §2
# [7] = high QC (Leu-DOX 4000, DOX 1200 pmol/mL, conjugate 80 nmol/mL)
# [8] = high QC (nominal Leu-DOX 4000, DOX 1200 pmol/mL)
# [9] = low QC (Leu-DOX 10, DOX 3 pmol/mL, conjugate 0.2 nmol/mL)
# [10] = low QC (nominal Leu-DOX 10, DOX 3 pmol/mL)
# [11] = high QC (Leu-DOX 2400, DOX 800 pmol/mL)
# [12] = high QC (nominal Leu-DOX 2400, DOX 800 pmol/mL)
# [13] = low QC (Leu-DOX 9, DOX 3 pmol/mL)
# [14] = low QC (nominal Leu-DOX 9, DOX 3 pmol/mL)
# [15] = high QC (Leu-DOX 2400, DOX 800 pmol/mL, conjugate 80 nmol/mL)
# [16] = low QC (Leu-DOX 9, DOX 3 pmol/mL, conjugate 0.2 nmol/mL)
# [17] = female SD rats, single i.v. legubicin 5 mg/kg
# [18] = female SD rats, single i.v. legubicin 15 mg/kg
# [19] = male SD rats, single i.v. legubicin 5 mg/kg
# [20] = male SD rats, single i.v. legubicin 15 mg/kg
# [21] = i.v. 9.05 µmol/kg of the labelled drug, n = 6, UHPLC-MS/MS
smiles,measurement,setting,value
"COc1cccc2c1C(=O)c1c(O)c3c(c(O)c1C2=O)C[C@@](O)(C(=O)CO)C[C@@H]3O[C@H]1C[C@H](N)[C@H](O)[C@H](C)O1 [DOX, Doxorubicin]","Auto-Sampler Stability at 2–8 °C (72 h), Bias",[1]; [7],1.0%
same,"Auto-Sampler Stability at 2–8 °C (72 h), Measured Concentration",[1]; [8],1211.67 ± 104.58 pmol/mL
same,"Auto-Sampler Stability at 2–8 °C (72 h), Bias",[1]; [9],4.4%
same,"Auto-Sampler Stability at 2–8 °C (72 h), Measured Concentration",[1]; [10],3.13 ± 0.25 pmol/mL
same,"Short-Term Stability at Room Temperature (4 h), Bias",[1]; [7],3.2%
same,"Freeze and Thaw Stability at −80 °C/Room Temperature (3 Cycles), Bias",[1]; [7],1.8%
same,"Long-Term Stability at −80 °C (70 days), Bias",[1]; [7],−0.8%
same,"Freeze and Thaw Stability at −80 °C/Room Temperature (3 Cycles), Measured Concentration",[1]; [8],1221.67 ± 97.45 pmol/mL
same,"Long-Term Stability at −80 °C (70 days), Measured Concentration",[1]; [8],1190.00 ± 40.50 pmol/mL
same,"Short-Term Stability at Room Temperature (4 h), Measured Concentration",[1]; [8],1238.33 ± 100.48 pmol/mL
same,"Short-Term Stability at Room Temperature (4 h), Bias",[1]; [9],1.2%
same,"Freeze and Thaw Stability at −80 °C/Room Temperature (3 Cycles), Bias",[1]; [9],0.4%
same,"Long-Term Stability at −80 °C (70 days), Bias",[1]; [9],−0.6%
same,"Freeze and Thaw Stability at −80 °C/Room Temperature (3 Cycles), Measured Concentration",[1]; [10],3.01 ± 0.15 pmol/mL
same,"Long-Term Stability at −80 °C (70 days), Measured Concentration",[1]; [10],2.98 ± 0.29 pmol/mL
same,"Short-Term Stability at Room Temperature (4 h), Measured Concentration","[1]; low QC (nominal Leu-DOX 10, DOX 3 pmol/mL), UHPLC-MS/MS",3.04 ± 0.18 pmol/mL
same,"Freeze and thaw stability at -80 °C/ room temperature, Bias","[2]; mouse tumor homogenate, 3 cycles, low QC (Leu-DOX 27, DOX 9 pmol/mL), n = 6",-1.2%
same,"Freeze and thaw stability at -80 °C/ room temperature, Measured concentration","[2]; mouse tumor homogenate, 3 cycles, low QC (nominal Leu-DOX 27, DOX 9 pmol/mL), n = 6, mean ± SD",8.89 ± 0.66 pmol/mL
same,"Short term stability at room temperature (6 h), Bias","[2]; mouse tumor homogenate, low QC (Leu-DOX 27, DOX 9 pmol/mL), n = 6",5.7%
same,"Short term stability at room temperature (6 h), Measured concentration","[2]; mouse tumor homogenate, low QC (nominal Leu-DOX 27, DOX 9 pmol/mL), n = 6, mean ± SD",9.51 ± 0.67 pmol/mL
same,"Auto-sampler stability at 2-8 °C, Bias","[2]; processed mouse tumor homogenate, 48h, low QC (Leu-DOX 27, DOX 9 pmol/mL), n = 6",-5.1%
same,"Auto-sampler stability at 2-8 °C, Measured concentration","[2]; processed mouse tumor homogenate, 48h, low QC (nominal Leu-DOX 27, DOX 9 pmol/mL), n = 6, mean ± SD",8.54 ± 0.89 pmol/mL
same,"Freeze and thaw stability at -80 °C/ room temperature, Bias",[3]; [11],-7.0%
same,"Freeze and thaw stability at -80 °C/ room temperature, Measured concentration",[3]; [12],744.33 ± 11.66 pmol/mL
same,"Freeze and thaw stability at -80 °C/ room temperature, Bias",[3]; [13],-8.6%
same,"Freeze and thaw stability at -80 °C/ room temperature, Measured concentration",[3]; [14],2.74 ± 0.07 pmol/mL
same,"Long term stability at -80 °C (30 days), Bias",[3]; [15],4.8%
same,"Short term stability at room temperature (6 h), Bias",[3]; [15],-9.3%
same,"Long term stability at -80 °C (30 days), Measured concentration",[3]; [12],838.33 ± 13.81 pmol/mL
same,"Short term stability at room temperature (6 h), Measured concentration",[3]; [12],728.83 ± 15.41 pmol/mL
same,"Long term stability at -80 °C (30 days), Bias",[3]; [16],-1.1%
same,"Short term stability at room temperature (6 h), Bias",[3]; [16],-9.4%
same,"Long term stability at -80 °C (30 days), Measured concentration",[3]; [14],2.97 ± 0.23 pmol/mL
same,"Short term stability at room temperature (6 h), Measured concentration",[3]; [14],2.72 ± 0.17 pmol/mL
same,"Auto-sampler stability at 2-8 °C, Bias",[3]; [11],-8.2%
same,"Auto-sampler stability at 2-8 °C, Measured concentration",[3]; [12],734.00 ± 10.90 pmol/mL
same,"Auto-sampler stability at 2-8 °C, Bias",[3]; [13],-7.9%
same,"Auto-sampler stability at 2-8 °C, Measured concentration",[3]; [14],2.76 ± 0.16 pmol/mL
same,"Freeze and thaw stability at -80 °C/ room temperature, Measured concentration","[4]; mouse liver homogenate, 3 cycles, low QC (nominal Leu-DOX 27, DOX 10 pmol/mL), n = 6, mean ± SD",11.04 ± 0.68 pmol/mL
same,"Short term stability at room temperature (6 h), Bias","[4]; mouse liver homogenate, low QC (Leu-DOX 27, DOX 10 pmol/mL), n = 6",0.8%
same,"Short term stability at room temperature (6 h), Measured concentration","[4]; mouse liver homogenate, low QC (nominal Leu-DOX 27, DOX 10 pmol/mL), n = 6, mean ± SD",10.08 ± 0.52 pmol/mL
same,"Auto-sampler stability at 2-8 °C, Measured concentration","[4]; processed mouse liver homogenate, 48h, low QC (nominal Leu-DOX 27, DOX 10 pmol/mL), n = 6, mean ± SD",11.06 ± 0.81 pmol/mL
same,AUClast,[5]; [17],100 ± 5.38 pmol·h/mL
same,Cmax,[5]; [17],3.11 ± 0.615 pmol/mL
same,Tmax,[5]; [17],"0.167 [0.167, 0.167] h"
same,AUClast,[5]; [18],486 ± 46.4 pmol·h/mL
same,Cmax,[5]; [18],20.5 ± 5.06 pmol/mL
same,Tmax,[5]; [18],"0.167 [0.167, 0.167] h"
same,AUClast,[5]; [19],173 ± 24.3 pmol·h/mL
same,Cmax,[5]; [19],6.65 ± 1.30 pmol/mL
same,Tmax,[5]; [19],"0.167 [0.167, 0.167] h"
same,AUClast,[5]; [20],789 ± 99.7 pmol·h/mL
same,Cmax,[5]; [20],44.2 ± 4.65 pmol/mL
same,Tmax,[5]; [20],"0.167 [0.167, 0.167] h"
same,AUClast of doxorubicin in heart,[6]; [21],29.0 nmol·h/g
same,AUClast of doxorubicin in kidney,[6]; [21],83.5 nmol·h/g
same,AUClast of doxorubicin in plasma,[6]; [21],1.07 nmol·h/g
same,AUClast of doxorubicin in tumor,[6]; [21],63.1 nmol·h/g
same,order of exposure (Dox distribution),"[6]; after i.v. doxorubicin 9.05 µmol/kg, n = 6",kidney > tumor > heart > plasma
same,time of maximum concentration (Cmax) in all tissues,"[6]; after i.v. doxorubicin 9.05 µmol/kg, initial sampling point",4 h
same,brain penetration of the metabolite,[6]; after i.v. legubicin 9.05 µmol/kg,neither the metabolite doxorubicin nor free Leu-Dox permeated the brain
same,tissue concentration rank order of the metabolite,"[6]; after i.v. legubicin 9.05 µmol/kg, n = 6","liver having the highest levels, followed by the tumor, skin, lung, gonads, spleen, kidney, stomach, small intestine, skeletal muscle, heart, and plasma"
